Results taken from ChEMBL document CHEMBL1125459, “Synthesis and biological activity of 8a-phenyldecahydroquinolines as probes of PCP's binding conformation. A new PCP-like compound with increased in vivo potency” (J Med Chem, 1992).

Key:
[1] = Compound was evaluated for its affinity towards N-methyl-D-aspartate glutamate receptor in male Swiss Webster mice.
Mus musculus = experiment: Compound was evaluated in vivo for effective dose by subcutaneous administration in mice using cGMP assay; type: functional; details: sc
[2] = Compound was evaluated for its affinity towards NMDA receptor in male Swiss Webster mice.

Row | Compound | IC50 [1] | ED50 (Mus musculus) | IC50 [2]
1 | C[C@]12N[C@H](Cc3ccccc31)c1ccccc12 [DIZOCILPINE] | 1.4 nM | 0.3 mg/kg | –
2 | c1ccc([C@@]23CCCC[C@@H]2CCCN3)cc1 | – | – | 159 nM
3 | c1ccc([C@@]23CCCC[C@H]2CCCN3)cc1 | 66.3 nM | 0.16 mg/kg | –
4 | c1ccc([C@]23CCCC[C@@H]2CCCN3)cc1 | – | – | 94.6 nM
5 | c1ccc([C@]23CCCC[C@H]2CCCN3)cc1 | 467 nM | – | –
6 | c1ccc(C2(N3CCCCC3)CCCCC2)cc1 [PHENCYCLIDINE] | 35 nM | – | –
